One compound from publication PMC5688156, “The natural product carolacton inhibits folate-dependent C1 metabolism by targeting FolD/MTHFD” (Nature Communications, 2017) can be followed below.

The structures appear in SMILES notation. Where “and” joins values, the source holds several entries; their conditions need not be identical. Equal values may be shown once.

One assay has as its system KB-3.1. Briefly: Cytotoxicity screening, KB-3.1 (MTT). The assay is classed as cell-based, human. The settings on record: for EC50: 5 d treatment, MTT. The protocol:
Half maximal effective concentrations (EC50) on human cancer cell lines were determined as described elsewhere. Human cancer cell lines were maintained as recommended by the depositor (German Collection of Microorganisms and Cell Cultures, DSMZ) and were treated for 5 d with carolacton in serial dilution. The viability of adherent cell types, HCT-116 (ACC 581), KB-3.1 (ACC-158) and KB-V.1 (ACC-149) was assessed by the addition of MTT tetrazolium salt and absorbance measurement at 570 nm. Histiocytic lymphoma U-937 cells (ACC-5) were maintained in RPMI 1640 medium and transferred into folate-free medium prior to the assay. Cell viability was determined by measuring alamar blue fluorescence emission at 590 nm. The values were referenced and EC50 values were determined by sigmoidal curve fitting. The cell lines KB-3.1 and KB-V.1 are originally derived from HeLa, whereas the latter is an MDR subclone of KB-3.1. They were used to directly compare the activity of carolacton on an mdr1 overexpressing and a sensitive cell line.

For another assay, the target named is T1, ecFolD (Escherichia coli, UniProt P24186).
T1 construct: His-tag (TEV-cleavable, vector pHis-TEV); made in house; host or cells: E. coli BL21 (DE3)
Briefly: ecFolD dehydrogenase (DH) enzyme assay. The class given is biochemical, E. coli. The settings on record: for Ki: carolacton inhibition on DH activity, from apparent KM. The protocol:
(§1) (6R,S)-5,10-Methylene-5,6,7,8-tetrahydrofolic acid ((6R,S)-5,10-CH2-THF) calcium salt and (6R,S)-5,10-Methenyl-5,6,7,8-tetrahydrofolic acid ((6R,S)-5,10-CH=THF) chloride were purchased from Schircks Laboratories (Bauma, Switzerland) and used as substrates for FolD dehydrogenase and cyclohydrolase enzyme assays, respectively. Only the R-isomer, which accounts for 50% of (6R,S)-5,10-CH2-THF and (6R,S)-5,10-CH=THF, respectively, is used by the enzyme. (6R,S)-5,10-CH2-THF was dissolved in N2-spargeled basic buffer (50 mM Tris-HCl (pH 8.0), 100 mM β-mercaptoethanol) as described by Varshney et al.[25]. (6R,S)-5,10-CH=THF was dissolved in DMSO as a 100 mM stock solution.
Because FolD is a bifunctional enzyme, dehydrogenase and cyclohydrolase activities were determined for FolD enzyme kinetics, respectively. The dehydrogenase activity of FolD was assayed for its substrate 5,10-CH2-THF and cofactor NADP^+ (in the case of MTHFD2, NAD^+ was used as the cofactor) based on monitoring the formation of 5,10-CH=THF, while the cyclohydrolase activity of FolD was determined for its substrate 5,10-CH=THF by monitoring the hydrolysis of […]. The enzyme kinetics for the dehydrogenase activity of all FolDs except hsMTHFD1_DC were determined at 30 °C in 50 mM Tris-HCl (pH 7.5), 30 mM β-mercaptoethanol. The hsMTHFD1_DC dehydrogenase activity was measured in 25 mM MOPS (pH 7.3), 30 mM β-mercaptoethanol at 30 °C. To measure the enzyme kinetic constants for 5,10-CH2-THF, for example in the case of ecFolD, the NADP concentration was fixed at 1 mM and the concentration of 5,10-CH2-THF varied from 5 to 1500 μM (R-isomer). Similarly, to measure the kinetic constants of ecFolD for NADP^+, the concentration of 5,10-CH2-THF (R-isomer) was fixed at 1 mM and the concentration of NADP^+ varied from 10 to 1500 μM. For different FolDs, the varied concentration range of substrates could be different. […] To monitor the formation of 5,10-CH=THF, the absorbance of the reaction mixture was monitored at 350 nm in micro UV cuvettes (BRAND, Essex, Connecticut, USA). The concentration of 5,10-CH=THF produced in the reaction was determined using an extinction co-efficient of 0.0249 μM^−1 cm^−1. […] The consumption of 5,10-CH=THF was measured by recording the absorbance of the reactions at 355 nm using the TECAN Infinite 200 PRO equipped with a monochromator. […] The inhibition constants (K i) of carolacton on FolD were determined by measuring the apparent K m when adding certain amounts of carolacton to the enzyme reactions. […] To compare the inhibition effects of carolacton between the different FolDs, the half maximal inhibitory concentration (IC50) of carolacton on the same amount of enzyme was determined for FolDs involved in this study. […]

For another assay, the target named is T2, hsMTHFD2 (Homo sapiens, UniProt P13995).
T2 construct: His-tag (vector pHis-TEV) (cleaved yes); made in house; host or cells: E. coli BL21 (DE3)
T2 sequence (P13995 36-350): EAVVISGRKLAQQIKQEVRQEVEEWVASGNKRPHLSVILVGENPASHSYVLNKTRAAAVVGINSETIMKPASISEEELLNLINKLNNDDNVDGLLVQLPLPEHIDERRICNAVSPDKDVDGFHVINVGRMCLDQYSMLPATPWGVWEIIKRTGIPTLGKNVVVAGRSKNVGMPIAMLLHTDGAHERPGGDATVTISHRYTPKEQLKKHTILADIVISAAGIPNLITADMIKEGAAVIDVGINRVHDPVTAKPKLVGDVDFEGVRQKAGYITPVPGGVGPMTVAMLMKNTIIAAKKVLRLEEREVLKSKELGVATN
Description: hsMTHFD2 cyclohydrolase (CYH) enzyme assay. The assay is classed as biochemical. As for the experimental part: as §1
Because FolD is a bifunctional enzyme, dehydrogenase and cyclohydrolase activities were determined for FolD enzyme kinetics, respectively. The dehydrogenase activity of FolD was assayed for its substrate 5,10-CH2-THF and cofactor NADP^+ (in the case of MTHFD2, NAD^+ was used as the cofactor) based on monitoring the formation of 5,10-CH=THF, while the cyclohydrolase activity of FolD was determined for its substrate 5,10-CH=THF by monitoring the hydrolysis of […]. The enzyme kinetics for the dehydrogenase activity of all FolDs except hsMTHFD1_DC were determined at 30 °C in 50 mM Tris-HCl (pH 7.5), 30 mM β-mercaptoethanol. The hsMTHFD1_DC dehydrogenase activity was measured in 25 mM MOPS (pH 7.3), 30 mM β-mercaptoethanol at 30 °C. […] To monitor the formation of 5,10-CH=THF, the absorbance of the reaction mixture was monitored at 350 nm in micro UV cuvettes (BRAND, Essex, Connecticut, USA). The concentration of 5,10-CH=THF produced in the reaction was determined using an extinction co-efficient of 0.0249 μM^−1 cm^−1. […] The consumption of 5,10-CH=THF was measured by recording the absorbance of the reactions at 355 nm using the TECAN Infinite 200 PRO equipped with a monochromator. […] The inhibition constants (K i) of carolacton on FolD were determined by measuring the apparent K m when adding certain amounts of carolacton to the enzyme reactions. […]

The next assay concerns the target T3, ecFolD K54N (Escherichia coli, UniProt P24186, K54N).
T3 construct: His-tag (TEV-cleavable, vector pHis-TEV); made in house; host or cells: E. coli BL21 (DE3)
Briefly: ecFolD K54N mutant dehydrogenase (DH) enzyme assay. The class given is biochemical, E. coli. The protocol: as §1
Because FolD is a bifunctional enzyme, dehydrogenase and cyclohydrolase activities were determined for FolD enzyme kinetics, respectively. The dehydrogenase activity of FolD was assayed for its substrate 5,10-CH2-THF and cofactor NADP^+ (in the case of MTHFD2, NAD^+ was used as the cofactor) based on monitoring the formation of 5,10-CH=THF, while the cyclohydrolase activity of FolD was determined for its substrate 5,10-CH=THF by monitoring the hydrolysis of […]. The enzyme kinetics for the dehydrogenase activity of all FolDs except hsMTHFD1_DC were determined at 30 °C in 50 mM Tris-HCl (pH 7.5), 30 mM β-mercaptoethanol. […]

Regarding `CO[C@H](CC(=O)O)[C@@H](C)C(=O)[C@H](C)/C=C(\C)[C@H]1OC(=O)[C@H](O)[C@H](O)/C=C/[C@H](C)CCC[C@@H]1C` [carolacton], the 50% effective concentration (EC50) (commonly the concentration at which the effect is half-maximal) was found to be 11300 ± 3600 nM in the assay on KB-3.1 and 11000 nM in the assay on KB-3.1 (Homo sapiens, KB 3-1, 120 h). In addition, in the assay with KB-3.1 (inhibition of cell growth, 5 d), the Maximum inhibition is over 80%. The IC50 – broadly, the point on the concentration scale where inhibition reaches its midpoint – amounted to 15.5 nM against ecFolD and 85.7 nM on hsMTHFD2 (5 nM enzyme, read-out: IC50, carolacton inhibition on CYH activity). Moreover, the Ki at ecFolD (Ki (5,10-CH2-THF), competitive vs substrate 5,10-CH2-THF) was 21 nM and 21.3 nM; on ecFolD (Ki (NADP+), competitive vs cofactor NADP+), 11 nM and 10.9 nM; on hsMTHFD2 (vs 5,10-CH=THF, read-out: Ki (5,10-CH=THF), carolacton inhibition on CYH activity), 12.7 nM. The IC80 (usually the concentration at which the effect reaches the 80% level) at ecFolD (read-out: IC80, carolacton inhibition on DH activity) amounted to 52.2 nM; on hsMTHFD2 (5 nM enzyme, read-out: IC80, carolacton inhibition on CYH activity) it was 202 nM. Further, the “sensitivity of residual DH activity to carolacton” value at ecFolD K54N was “completely insensitive”.
